Measurements: patent EP4644377A1, “LIPID COMPOUND FOR GENE DELIVERY AND LIPID NANOPARTICLE COMPRISING SAME” (NANJING CYBERNAX BIOMEDICAL TECHNOLOGY CO., LTD., priority 2022, dated 2024)

Key:
C57Bl/6 mice = experiment: Luciferase mRNA delivery in mice, IVIS chemiluminescence; format: in vivo
Description: The animal experiments were reviewed and approved by the Ethics Committee of Zhejiang Medical College and the Ethics Committee of Zhejiang University of Technology. 6- to 8-week-old male C57Bl/6 mice were randomly grouped with 3 mice in each group. The mice in each group received a lipid nanoparticle coating mRNA expressing a luciferase via tail vein injection at a dose of 0.25 mg/kg mouse body weight (calculated by the mass of coated mRNA). […] The mRNA delivery effect of the lipid nanoparticle is quantitatively compared through a total chemiluminiscence quantity (Total Flux p/s) of a mouse whole body within unit time (shown in Table 5).
Table 13 and Table 14 show whole body chemiluminescent signals when LNPs (formulation 2) composed of the lipids in some examples deliver Flue mRNA in mice. The delivery dose of Flue mRNA was 0.25 mg/kg. 6 h after LNP injection, 150 mg/kg of D-luciferin was intraperitoneally injected into the mice, and then the whole body chemiluminescent signals were collected in the IVIS imaging system after 10 min. […]

[1] = Particle size detection of LNP (Brookhaven NanoBrook Omni, DLS); format: physicochemical; details: LNPs after coating mRNA (luciferase)
Description: Step 1. Preparation of a lipid solution and a nucleic acid solution: unless otherwise specified, all aqueous solutions involved in examples were prepared from deionized water without nucleases. An ionizable lipid, a phospholipid (disaturated phosphatidylcholine (DSPC) or dioleoylphosphatidylethanolamine (DOPE)), cholesterol and a PEG lipid (DMG-PEG2000) were mixed in a molar ratio of 50/10/38.5/1.5 (containing DSPC, formulation 1) or 36.5/16/46.5/2.5 (containing DOPE, formulation 2) and dissolved into an ethanol solution. Meanwhile, a nucleic acid (a mass ratio of ionizable lipid/nucleic acid was 10/1) was dissolved into a citrate buffer solution of pH=3, so that a final volume ratio of the ethanol solution to the citrate solution was 1/3.
Step 2. Preparation of LNP by mixing the lipid solution with the nucleic acid solution: the lipid ethanol solution and the nucleic acid aqueous solution that were prepared in Step 1 were respectively put into a sterile syringe and placed in a Precision Nanosystem Ignite instrument, the extrusion flow speeds of the ethanol solution and the water phase solution were respectively set as 3 ml/min and 9 ml/min in instrument program settings. A microfluidic chip was inserted into the instrument and LNP preparation was initiated, and then a solution mixed by the chip was collected.
Step 2.1. Preparation of an LNP solution coating nucleic acid in a porous plate: a solution of an ionizable lipid, a phospholipid (DSPC or DOPE), cholesterol and a PEG lipid (DMG-PEG2000) in ethanol was added into each well of a 96-well deep plate, so that a molar ratio of four component lipids in each well was 50/10/38.5/1.5 (containing DSPC, formulation 1) or 36.5/16/46.5/2.5 (containing DOPE, formulation 2). Then, a citrate buffer solution (pH=3, the mass of nucleic acid added into each well was 1/10 that of the ionizable lipid in this well) that was three times as ethanol in volume and dissolved with a nucleic acid molecule was quickly added into the well plate through a multi-channel pipette or an automatic liquid dispensing system and rapidly mixed, so as to obtain the LNP solution coating nucleic acid.
Step 3. Purification of the LNP solution: the LNP solution collected in Step 2 or Step 2.1 was subjected to dialysis-concentration-filtration operations, so as to obtain a final LNP solution coating nucleic acid for subsequent testing.
The LNP solution coating nucleic acid obtained in Step 3 was diluted so that the final lipid concentration was between 0.01 mg/ml and 0.1 mg/ml. The diluted solution was added into a sample reservoir, and then subjected to particle size detection in a Brookhaven NanoBrook Omni instrument.

[2] = LNP formulation 2 (SM102: formulation 1), luciferase mRNA 0.25 mg/kg, tail vein, C57Bl/6 mice, whole body signal 6 h after LNP, 10 min after D-luciferin 150 mg/kg i.p.
[3] = LNPs (formulation 2), Flue mRNA 0.25 mg/kg, tail vein injection, whole body signal 6 h after LNP injection, 10 min after 150 mg/kg D-luciferin i.p.

PDI [1]	Particle size [1]	Compound	Chemiluminescent signal (p/s) (C57Bl/6 mice; [2])	further results
		CCCCCCCCC(=O)OCCCNC(=O)C(N(CCCN(C)C)C(=O)CCCCCCC/C=C\C[C@H](O)CCCCCC)C(C)(C)C (some centres unmarked) [Lipid 166]	2.98E+09 p/s	
0.18	92.2 ± 0.47 nm·days	CCCCCCCCC(CCCCCC)COC(=O)CCCCCCC(=O)N(CCCN(C)C)C(C(=O)NCCCCCCOC(=O)C(CCCCCC)CCCCCCCC)C(C)(C)C (centres unmarked) [Lipid 436]		
		CCCCC/C=C\C/C=C\CCCCCCCC(=O)N(CCCN(C)C)C(C(=O)NCCCCCCCC(=O)OC(CCCCCCCC)CCCCCCCC)C1CCC1 (centres unmarked) [Lipid 937]		Chemiluminescent signal (p/s) (C57Bl/6 mice; [3]): 1.01E+08 p/s
0.17	104.99 ± 1.21 nm·days	CCCCCCCC/C=C\CCCCCCCCNC(=O)C(N(CCCN(C)C)C(=O)OCCCCCCCCCCCC)C(C)(C)C (centres unmarked) [Lipid 327]		
		CCCCCCCC/C=C\CCCCCCCC(=O)OCCCNC(=O)C(C(CC)CC)N(CCCN(CC)CC)C(=O)CCCCCCCCCCC (centres unmarked) [Lipid 113]	3.39E+08 p/s	
		CCCCCCCCCCCCCC(=O)N(CCCN(C)C)C(C)C(=O)NCCCCCCOC(=O)C(CCCCCC)CCCCCCCC (centres unmarked) [Lipid 1039]		Chemiluminescent signal (p/s) (C57Bl/6 mice; [3]): 3.31E+06 p/s
		CCCCCCCCC(CCCCCC)C(=O)OCCCCCCNC(=O)C(N(CCCN(C)C)C(=O)CCCCCCC/C=C\C[C@H](O)CCCCCC)C(C)(C)C (some centres unmarked) [Lipid 286]	4.78E+10 p/s	
0.18	111.42 ± 4.09 nm·days	CCCCCCCC/C=C\CCCCCCCCNC(=O)C(N(CCCN(C)C)C(=O)NCCCCCCCCCCCC)C(C)(C)C (centres unmarked) [Lipid 326]		
		CCCCCCCCC(CCCCCCCC)OC(=O)CCCCCCCNC(=O)C(N(CCCN(C)C)C(=O)CCCCCCC/C=C\C[C@H](O)CCCCCC)C(C)(C)C (some centres unmarked) [Lipid 176]	9.19E+08 p/s	
		CCCCCCCCCCCCCCNC(=O)C(N(CCN(C)CCO)C(=O)CCCCCCCCCCCCC)C(C)(C)C (centres unmarked) [Lipid 194]	3.84E+09 p/s	
		CCCCCCCCCCCCNC(=O)C(N(CCCN(C)CCO)C(=O)CCCCCCCCCCC)C(C)(C)C (centres unmarked) [Lipid 188]	1.92E+10 p/s	
		CCCCC/C=C\C/C=C\CCCCCCCC(=O)N(CCCN(C)C)C(CC)C(=O)NCCCCCCCC(=O)OC(CCCCCCCC)CCCCCCCC (centres unmarked) [Lipid 950]		Chemiluminescent signal (p/s) (C57Bl/6 mice; [3]): 3.41E+07 p/s
		CCCCCCCCCCCCCCNC(=O)C(N(CCCN(CC)CC)C(=O)CCCCCCCCCCC)C(C)(C)C (centres unmarked) [Lipid 158]	3.83E+08 p/s	
		CCCCCCCCCCCCCC(=O)N(CCCN(CC)CC)C(C(=O)NCCCCCCCC(=O)OC(CCCCCCCC)CCCCCCCC)C(C)(C)C (centres unmarked) [Lipid 179]	2.60E+09 p/s	
		CCCCCCCCCCCC(=O)N(CCCN(C)C)C(C(=O)NCCCCCCCC(=O)OC(CCCCCCCC)CCCCCCCC)C(C)(C)C (centres unmarked) [Lipid 173]	5.48E+08 p/s	
		CC/C=C\C/C=C\C/C=C\C/C=C\C/C=C\CCCC(=O)N(CCCN(C)C)C(C(=O)NCCCCCCOC(=O)C(CCCCCC)CCCCCCCC)C(C)(C)C (centres unmarked) [Lipid 287]	1.23E+10 p/s	
0.23	162.23 ± 0.89 nm·days	CCCCCCCCCCCCCC(=O)N(CCCN(C)C)C(C(=S)NCCCCCCCC(=O)OC(CCCCCCCC)CCCCCCCC)C(C)(C)C (centres unmarked) [Lipid 317]		
0.27	253.06 ± 4.58 nm·days	CCCCCCCCCCCCCCNC(=O)C(N(CCCN(CC)CC)C(=O)CCCCCCC/C=C\C[C@H](O)CCCCCC)C(C)(C)C (some centres unmarked) [Lipid 161]		
0.19	160.5 ± 2.71 nm·days	CCCCC/C=C\C/C=C\CCCCCCCC(=O)N(CCCN(C)C)C(C(=O)NCCCCCCCC(=O)OC(CCCCCCCC)CCCCCCCC)C1CC1 (centres unmarked) [Lipid 936]		
0.26	150.04 ± 0.93 nm·days	CCCCCCCCC(CCCCCC)C(=O)OCCCCCCNC(=O)C(N(CCCN(CC)CC)C(=O)CCCCCCC/C=C\C[C@H](O)CCCCCC)C(C)(C)C (some centres unmarked) [Lipid 294]		
0.16	162.45 ± 2.28 nm·days	CC/C=C\C/C=C\C/C=C\C/C=C\C/C=C\CCCC(=O)N(CCCN(CC)CC)C(C(=O)NCCCCCCOC(=O)C(CCCCCC)CCCCCCCC)C(C)(C)C (centres unmarked) [Lipid 295]		
